Patent publication US20260217701A1, “SELECTIVE BET INHIBITORS AND USES THEREOF” (Tay Therapeutics Limited, priority 2022, published 2026)

Key:
BRD4 BD2 = biological target: T1, BRD4 BD2 (Homo sapiens, UniProt O60885); assay: NanoBRET bromodomain assay, NanoLuc-BRD4-BD2 in HEK293 cells; type: binding; settings: for Fold Selectivity BRD4 BD1/BD2: IC50 BD1/IC50 BD2, qualitative if an IC50 is at the upper limit
T1 construct: HEK293 cells were transfected using NanoLuc-BRD4-BD1 or NanoLuc-BRD4-BD2 fusion vectors
Description: (§1) Plates were then incubated at 37° C.+5% CO2 incubator for 2 hours.
(§2) Fold Selectivity Calculated (IC50 BD1/IC50 BD2).

BRD4 BD1 = biological target: T2, BRD4 BD1 (Homo sapiens, UniProt O60885); assay: NanoBRET bromodomain assay, NanoLuc-BRD4-BD1 in HEK293 cells; type: binding
T2 construct: HEK293 cells were transfected using NanoLuc-BRD4-BD1 or NanoLuc-BRD4-BD2 fusion vectors
Description: Exemplary compounds of the disclosure are active against BRD4 BD2 and selective over BRD4 BD1. BRD4 is a representative example of the BET family, as the binding sites of all BET family members are structurally similar. […] IC50s and fold selectivity's are determined as described below and are represented in Table 1.
as §1, §2

Compound | IC50 (BRD4 BD2) [nM] | Fold Selectivity BRD4 BD1/BD2 (BRD4 BD2) | IC50 (BRD4 BD1) [nM]
Cn1cc(-c2cccc(OCCO)c2)c(-c2cn(C)c(=O)c3[nH]c(-c4ccc(F)cc4F)cc23)cc1=O [Example 76] | 10 to 50 | xxx (Fold >200 and ≤1000) | > 1000
Cc1cc(-c2cc3c(-c4cc(=O)n(C)cc4-c4ccc(C#N)cc4)cn(C)c(=O)c3[nH]2)cc(C)n1.Cl [Example 29, 4-(4-(2-(2,6-dimethylpyridin-4-yl)-6-methyl-7-oxo-6,7-dihydro-1H-pyrrolo[2,3-c]pyridin-4-yl)-1-methyl-6-oxo-1,6-dihydropyridin-3-yl)benzonitrile hydrogen chloride] | 10 to 50 | xxx (Fold >200 and ≤1000) | > 1000
Cc1cc(-c2cc3c(-c4cc(=O)n(C)cc4-c4ccc(S(C)(=O)=O)cc4)cn(C)c(=O)c3[nH]2)cc(C)n1 [Example 86] | 200 to 1000 | x (Fold >2 and ≤50) | > 1000
Cn1cc(-c2c(-c3ccccc3)cn(CCO)c(=O)c2C(F)(F)F)c2cc(-c3cnn(C(F)(F)F)c3)[nH]c2c1=O [Example 68, 4-(1-(2-hydroxyethyl)-2-oxo-5-phenyl-3-(trifluoromethyl)-1,2-dihydropyridin-4-yl)-6-methyl-2-(1-(trifluoromethyl)-1H-pyrazol-4-yl)-1,6-dihydro-7H-pyrrolo[2,3-c]pyridin-7-one] | 200 to 1000 | x (Fold >2 and ≤50) | > 1000
Cn1cc(-c2cccnc2)c(-c2cn(C)c(=O)c3[nH]c(-c4cnn(C(F)(F)F)c4)c(F)c23)cc1=O [Example 67, 3-fluoro-6-methyl-4-(1-methyl-6-oxo-1,6-dihydro-[3,3′-bipyridin]-4-yl)-2-(1-(trifluoromethyl)-1H-pyrazol-4-yl)-1,6-dihydro-7H-pyrrolo[2,3-c]pyridin-7-one] | 10 to 50 | xxx (Fold >200 and ≤1000) | > 1000
Cc1cccc(C)c1Oc1cn(C)c(=O)cc1-c1cn(C)c(=O)c2[nH]c(-c3cc(F)c(F)cc3F)cc12 [Example 88] | 10 to 50 | xxx (Fold >200 and ≤1000) | > 1000
Cc1cccc(C)c1Oc1cn(C2CC2)c(=O)cc1-c1cn(C)c(=O)c2[nH]c(-c3ccc(F)cc3F)cc12 [Example 39, 4-(1-cyclopropyl-5-(2,6-dimethylphenoxy)-2-oxo-1,2-dihydropyridin-4-yl)-2-(2,4-difluorophenyl)-6-methyl-1,6-dihydro-7H-pyrrolo[2,3-c]pyridin-7-one] | < 10 | xxxx (Fold >1000) | > 1000
Cn1cc(-c2cccc(CN3CCNCC3)c2)c(-c2cn(C)c(=O)c3[nH]c(-c4cnn(C(F)(F)F)c4)cc23)cc1=O [Example 4, 6-methyl-4-(1-methyl-2-oxo-5-(3-(piperazin-1-ylmethyl)phenyl)-1,2-dihydropyridin-4-yl)-2-(1-(trifluoromethyl)-1H-pyrazol-4-yl)-1,6-dihydro-7H-pyrrolo[2,3-c]pyridin-7-one] | > 1000 | — (Fold ≥0 and ≤2) | > 1000
Cc1cccc(C)c1Oc1cn(C)c(=O)cc1-c1cn(C)c(=O)c2[nH]c(-c3cnn(CC(F)(F)F)c3)cc12 [Example 13, 4-(5-(2,6-dimethylphenoxy)-1-methyl-2-oxo-1,2-dihydropyridin-4-yl)-6-methyl-2-(1-(2,2,2-trifluoroethyl)-1H-pyrazol-4-yl)-1,6-dihydro-7H-pyrrolo[2,3-c]pyridin-7-one] | 10 to 50 | xxx (Fold >200 and ≤1000) | > 1000
Cn1cc(-c2cccnc2)c(-c2cn(C)c(=O)c3[nH]c(-c4ccc(F)cc4F)cc23)cc1=O [Example 37, 2-(2,4-difluorophenyl)-6-methyl-4-(1-methyl-6-oxo-1,6-dihydro-[3,3′-bipyridin]-4-yl)-1,6-dihydro-7H-pyrrolo[2,3-c]pyridin-7-one] | 10 to 50 | xxx (Fold >200 and ≤1000) | > 1000
Cn1cc(-c2cc(=O)n(CCOC(F)F)cc2-c2ccccc2)c2cc(-c3cnn(C(F)(F)F)c3)[nH]c2c1=O [Example 22, 4-(1-(2-(difluoromethoxy)ethyl)-2-oxo-5-phenyl-1,2-dihydropyridin-4-yl)-6-methyl-2-(1-(trifluoromethyl)-1H-pyrazol-4-yl)-1,6-dihydro-7H-pyrrolo[2,3-c]pyridin-7-one] | < 10 | xxxx (Fold >1000) | > 1000
Cn1cc(-c2cccc(C(C)(C)O)c2)c(-c2cn(C)c(=O)c3[nH]c(-c4ccc(F)cc4F)cc23)cc1=O [Example 51, 2-(2,4-difluorophenyl)-4-(5-(3-(2-hydroxypropan-2-yl)phenyl)-1-methyl-2-oxo-1,2-dihydropyridin-4-yl)-6-methyl-1,6-dihydro-7H-pyrrolo[2,3-c]pyridin-7-one] | < 10 | xxxx (Fold >1000) | > 1000
CC(C)n1cc(-c2cc3c(-c4cc(=O)n(C)cc4-c4cccc(CN5CCOCC5)c4)cn(C)c(=O)c3[nH]2)cn1 [Example 78] | 10 to 50 | xxx (Fold >200 and ≤1000) | > 1000
COc1cccc(-c2cc3c(-c4cc(=O)n(C5CC5)cc4-c4ccccc4)cn(C)c(=O)c3[nH]2)c1F [Example 50, 4-(1-cyclopropyl-2-oxo-5-phenyl-1,2-dihydropyridin-4-yl)-2-(2-fluoro-3-methoxyphenyl)-6-methyl-1,6-dihydro-7H-pyrrolo[2,3-c]pyridin-7-one] | < 10 | xxxx (Fold >1000) | > 1000
Cn1cc(-c2ccccc2)c(-c2cn(C)c(=O)c3[nH]c(-c4ccc(C5COC5)cc4)cc23)cc1=O [Example 44, 6-methyl-4-(1-methyl-2-oxo-5-phenyl-1,2-dihydropyridin-4-yl)-2-(4-(oxetan-3-yl)phenyl)-1,6-dihydro-7H-pyrrolo[2,3-c]pyridin-7-one] | < 10 | xxxx (Fold >1000) | > 1000

Next, values leading:

IC50 (BRD4 BD2) [nM] | Fold Selectivity BRD4 BD1/BD2 (BRD4 BD2) | IC50 (BRD4 BD1) [nM] | Compound
50 to 200 | xx (Fold >50 and ≤200) | > 1000 | Cc1cccc(C)c1Oc1cn(C)c(=O)cc1-c1cn(C)c(=O)c2[nH]c(-c3cccc(C(F)F)c3F)cc12 [Example 95]
10 to 50 | xxx (Fold >200 and ≤1000) | > 1000 | Cn1cc(-c2cccc(CN3CCOCC3)c2)c(-c2cn(C)c(=O)c3[nH]c(-c4ccc(F)cc4F)cc23)cc1=O [Example 36, 2-(2,4-difluorophenyl)-6-methyl-4-(1-methyl-5-(3-(morpholinomethyl)phenyl)-2-oxo-1,2-dihydropyridin-4-yl)-1,6-dihydro-7H-pyrrolo[2,3-c]pyridin-7-one]
10 to 50 | xxx (Fold >200 and ≤1000) | > 1000 | Cn1cc(-c2cc(=O)n(CCO)cc2-c2ccccc2)c2cc(-c3cnn(C(F)(F)F)c3)[nH]c2c1=O [Example 60, 4-(1-(2-hydroxyethyl)-2-oxo-5-phenyl-1,2-dihydropyridin-4-yl)-6-methyl-2-(1-(trifluoromethyl)-1H-pyrazol-4-yl)-1,6-dihydro-7H-pyrrolo[2,3-c]pyridin-7-one]
< 10 | xxx (Fold >200 and ≤1000) | 500 to 1000 | Cc1cc(-c2cc3c(-c4cc(=O)n(C)cc4-c4ccccc4F)cn(C)c(=O)c3[nH]2)cc(C)n1.Cl [Example 26, 2-(2,6-dimethylpyridin-4-yl)-4-(5-(2-fluorophenyl)-1-methyl-2-oxo-1,2-dihydropyridin-4-yl)-6-methyl-1,6-dihydro-7H-pyrrolo[2,3-c]pyridin-7-one hydrogen chloride]
< 10 | xxxx (Fold >1000) | > 1000 | Cn1cc(-c2ccccc2)c(-c2cn(C)c(=O)c3[nH]c(-c4cnn(C(F)(F)F)c4)c(F)c23)cc1=O [Example 21, 3-fluoro-6-methyl-4-(1-methyl-2-oxo-5-phenyl-1,2-dihydropyridin-4-yl)-2-(1-(trifluoromethyl)-1H-pyrazol-4-yl)-1,6-dihydro-7H-pyrrolo[2,3-c]pyridin-7-one]
< 10 | xxxx (Fold >1000) | > 1000 | Cc1cccc(C)c1Oc1cn(C)c(=O)cc1-c1cn(C)c(=O)c2[nH]c(-c3cnc(C(C)C)s3)cc12 [Example 54, 4-(5-(2,6-dimethylphenoxy)-1-methyl-2-oxo-1,2-dihydropyridin-4-yl)-2-(2-isopropylthiazol-5-yl)-6-methyl-1,6-dihydro-7H-pyrrolo[2,3-c]pyridin-7-one]
< 10 | xxxx (Fold >1000) | > 1000 | Cn1cc(-c2cc(=O)n(C3CC3)cc2-c2ccccc2)c2cc(-c3cccc(F)c3F)[nH]c2c1=O [Example 48, 4-(1-cyclopropyl-2-oxo-5-phenyl-1,2-dihydropyridin-4-yl)-2-(2,3-difluorophenyl)-6-methyl-1,6-dihydro-7H-pyrrolo[2,3-c]pyridin-7-one]
50 to 200 | xx (Fold >50 and ≤200) | > 1000 | Cn1cc(-c2cccc(CS(C)(=O)=O)c2)c(-c2cn(C)c(=O)c3[nH]c(-c4cnn(C(F)(F)F)c4)cc23)cc1=O [Example 2, 6-methyl-4-(1-methyl-5-(3-((methylsulfonyl)methyl)phenyl)-2-oxo-1,2-dihydropyridin-4-yl)-2-(1-(trifluoromethyl)-1H-pyrazol-4-yl)-1,6-dihydro-7H-pyrrolo[2,3-c]pyridin-7-one]
10 to 50 | xxx (Fold >200 and ≤1000) | > 1000 | Cn1cc(-c2ccccc2Cl)c(-c2cn(C)c(=O)c3[nH]c(-c4ccc(F)cc4F)cc23)cc1=O [Example 79]
